The results in this text go back to US20110144079A1, “ANTIMICROBIAL SYSTEM” (priority 2008, published 2011).

The test system of experiment [1] is MRSA. Put plainly: Zone of inhibition on MRSA-seeded agar culture plates. The class given is cell-based, methicillin-resistant S. aureus. The following applies: 40 μL of ionic liquid applied to MRSA-seeded agar culture plates. The source says: As used herein, CyMIMCI, refers to 1-alkyl-3-methyl-imidazolium chloride ionic liquids, wherein the alkyl group is a straight chain alkyl group having y carbon atoms.

For experiment [2], the system named is E-MRSA 15. Put plainly: Biofilm assay (Calgary Biofilm Device), MBEC. It counts as cell-based. The settings on record: E-MRSA 15 24 h biofilm, 24 h challenge. As for the experimental part: (§1) Biofilms of each test organism were grown in the Calgary Biofilm Device (commercially available as the MBEC Assay™ for Physiology & Genetics, Innovotech Inc., Edmonton, Alberta, Canada). The device, a micro-titre plated based assay, consists of two parts; a microtitre plate containing the inoculated test medium and a polystyrene lid with 96 identical pegs on which the microbial biofilm forms under gyrorotary incubation. The biofilm assay was conducted according to the MBEC™ assay protocol as supplied by the manufacturer, with slight modifications. Inocula of each test organism were prepared in MHB as described above and adjusted to provide a final inoculum density of ˜10^7 CFU ml^−1 (as confirmed by viable count). 150 μl of the inoculated media was transferred to each well of the 96-well microtitre plate and the assay plate lid, bearing 96 pegs was placed into the microtitre plate. The MBEC assay plates were placed in a gyrorotary incubator (37° C., 95% relative humidity) for 24 h to permit growth and comparison of 24 h biofilms of each test strain. Positive and negative growth controls were included in each plate (6 replicates). Initial and 24 h planktonic viable counts were measured, as were 24 h biofilm counts, expressed as CFU peg^−1, according to manufacturers instructions. After 24 h, the peg lid of the MBEC assay plate was gently rinsed three times. After rinsing, the peg lid of the MBEC assay was transferred to a ‘challenge’ plate. Serial dilutions of each imidazolium salt were prepared in 200 μl of MHB containing various concentrations of IL in each well. Positive growth control and sterility control were included in each assay plate. […] Biofilms were dislodged into recovery media by sonication for 5 minutes and the peg lid discarded. The recovery plate is incubated overnight and visually checked after 24 h for turbidity. In addition, optical density measurements for each plate were recorded at 550 nm. Clear wells were taken as evidence of biofilm eradication and the MBEC value was assigned as the lowest concentration at which no growth was observed after 24 h incubation. Plates were incubated for a further 24 h to confirm biofilm eradication concentrations.

Experiment [3] concerns B. cenocepacia J2315. Put plainly: Biofilm assay (Calgary Biofilm Device), MBEC. The class given is cell-based. The following applies: B. cenocepacia J2315 24 h biofilm, 24 h challenge. As for the experimental part:
as §1

In experiment [4] the test system is P. mirabilis NCTC 12442. As to the kind of experiment: Biofilm assay (Calgary Biofilm Device), MBEC. It counts as cell-based. The settings on record: P. mirabilis NCTC 12442 24 h biofilm, 24 h challenge. As for the experimental part:
as §1

Experiment [5] concerns S. epidermidis ATCC 35984. Put plainly: Biofilm assay (Calgary Biofilm Device), MBEC. The following applies: for MBEC: S. epidermidis ATCC 35984 24 h biofilm, 24 h challenge. The class given is cell-based. As to the method:
as §1

In experiment [6] the test system is S. aureus ATCC 29213. Put plainly: Biofilm assay (Calgary Biofilm Device), MBEC. It counts as cell-based. The following applies: S. aureus ATCC 29213 24 h biofilm, 24 h challenge. As for the experimental part:
as §1

Experiment [7] deals with P. aeruginosa PA01. Put plainly: Biofilm assay (Calgary Biofilm Device), MBEC. The class given is cell-based. The following applies: P. aeruginosa PA01 24 h biofilm, 24 h challenge. As to the method: as §1
Experiment [8] deals with E. coli PIII. As to the kind of experiment: Biofilm assay (Calgary Biofilm Device), MBEC. It counts as cell-based. The following applies: E. coli PIII 24 h biofilm, 24 h challenge. As to the method: as §1
Experiment [9] relates to K. aerogenes NCTC 7427. As to the kind of experiment: Biofilm assay (Calgary Biofilm Device), MBEC. It counts as cell-based. The settings on record: K. aerogenes NCTC 7427 24 h biofilm, 24 h challenge. As to the method:
as §1

The test system of experiment [10] is C. tropicalis NCTC 7393. Put plainly: Biofilm assay (Calgary Biofilm Device), MBEC. It counts as cell-based. The settings on record: C. tropicalis NCTC 7393 24 h biofilm, 24 h challenge. As to the method:
as §1

Experiment [11] relates to E-MRSA 15. As to the kind of experiment: Broth microdilution MIC/MBC. It counts as cell-based. An outline of the steps:
(§2)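 Two-fold serial dilutions of imidazolium salts (0.0000625–1% w/v) in Mueller-Hinton broth were inoculated at a final 2×10^5 CFU/ml and incubated aerobically 24 h at 37 °C, per NCCLS. MIC was read as no visible growth; MBC came from subculturing clear wells onto MHA for 24 h, scoring 99.9% killing.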
(Dilution methods test growth across graded concentrations, often in twofold steps.)

The test system of experiment [12] is E. coli NCTC 8196. Put plainly: Broth microdilution MIC/MBC. It counts as cell-based. The settings on record: for MIC: E. coli NCTC 8196, 24 h at 37° C. The method in brief:
as §2

For experiment [13], the system named is B. cenocepacia J2315. As to the kind of experiment: Broth microdilution MIC/MBC. It counts as cell-based. An outline of the steps:
as §2

Experiment [14] relates to S. epidermidis ATCC 12228. As to the kind of experiment: Broth microdilution MIC/MBC. The settings on record: for MIC: S. epidermidis ATCC 12228, 24 h at 37° C. It counts as cell-based. The method in brief: as §2
Experiment [15] has as its system P. mirabilis NCTC 12442. As to the kind of experiment: Broth microdilution MIC/MBC. It counts as cell-based. The following applies: for MIC: P. mirabilis NCTC 12442, 24 h at 37° C. The method in brief: as §2
Experiment [16] relates to S. epidermidis ATCC 35984. As to the kind of experiment: Broth microdilution MIC/MBC. The following applies: for MIC: S. epidermidis ATCC 35984, 24 h at 37° C. It counts as cell-based. An outline of the steps:
as §2

Experiment [17] deals with S. aureus ATCC 29213. Put plainly: Broth microdilution MIC/MBC. The class given is cell-based. The settings on record: for MIC: S. aureus ATCC 29213, 24 h at 37° C. An outline of the steps: as §2
Experiment [18] concerns P. aeruginosa PA01. As to the kind of experiment: Broth microdilution MIC/MBC. The class given is cell-based. The settings on record: for MIC: Pseudomonas aeruginosa, PA01, 24 h, P. aeruginosa PA01, 24 h at 37° C., read-out: MIC. An outline of the steps: as §2
Experiment [19] has as its system K. aerogenes NCTC 7427. As to the kind of experiment: Broth microdilution MIC/MBC. The settings on record: for MIC: K. aerogenes NCTC 7427, 24 h at 37° C. The class given is cell-based. The method in brief: as §2
The subject of experiment [20] is C. tropicalis NCTC 7393. As to the kind of experiment: Broth microdilution MIC/MBC. It counts as cell-based. An outline of the steps: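 MIC endpoint is the lowest imidazolium salt level (range 0.0000625–1% w/v, two-fold steps in Mueller-Hinton broth) preventing growth after 24 h aerobic incubation at 37 °C with 2×10^5 CFU/ml. MBC is the lowest level giving 99.9% killing when no-growth wells are spread on MHA.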

Experiment [21] concerns E. coli PIII. As to the kind of experiment: Broth microdilution MIC. The class given is cell-based. As to the method:
(§3) Broth microdilution tests were performed according to NCCLS guidelines. Serial two-fold dilutions of each imidazolium salt (from an original working solution which had been 0.22 μm sterile filtered) in Mueller-Hinton Broth (MHB) (100 μl) were prepared in 96-well micro-titre plates over the range 0.0000625-1% w/v. The inoculum to be tested was prepared by adjusting the turbidity of an actively overnight growing broth culture in MHB to an optical density at 550 nm equivalent to 1×10^8 CFU/ml. The suspension was further diluted to provide a final inoculum density of 2×10^5 CFU/ml in MHB as verified by total viable count. The inoculum to be tested (100 μl, 2×10^5 CFU ml^−1) was added to each well of the microdilution trays which were incubated aerobically for 24 h at 37° C. Positive and negative growth controls were included in every assay (6 replicates). After determining the MICs, minimum bactericidal concentrations (MBCs) were determined by spreading 20 μl of suspension from wells showing no growth onto MHA plates, which were then incubated for 24 h and examined for 99.9% killing.

The test system of experiment [22] is MRSA. Put plainly: Biofilm assay (Calgary Biofilm Device), MBEC. The class given is cell-based, methicillin-resistant S. aureus. As to the method:
as §1

For experiment [23], the system named is MRSA. Put plainly: Broth microdilution MIC/MBC. It counts as cell-based, methicillin-resistant S. aureus. The following applies: for MIC: 24 h at 37° C. As for the experimental part: as §3
In experiment [24] the test system is S. epidermidis ATCC 12228. As to the kind of experiment: Biofilm assay (Calgary Biofilm Device), MBEC. The class given is cell-based. As for the experimental part:
as §1

The test system of experiment [25] is B. cereus. As to the kind of experiment: Broth microdilution MIC/MBC. It counts as cell-based. The settings on record: Bacillus cereus, 24 h at 37° C. An outline of the steps: as §2
Experiment [26] concerns B. cereus. As to the kind of experiment: Biofilm assay (Calgary Biofilm Device), MBEC. The class given is cell-based. The following applies: B. cereus 24 h biofilm, 24 h challenge. As for the experimental part: as §1
Setting [27] is: Staphylococcus epidermidis, ATCC12228.

The MBC is the smallest concentration meeting the test's criterion for killing. A low value points to greater bactericidal potency. By MIC is commonly meant the smallest concentration in the dilution series that meets the test's criterion for growth inhibition. For the compound `CCCCCCCCn1cc[n+](C)c1.[Cl-]` [C8MIMCl], the “Zone Of Inhibition Radius” value in experiment [1] is reported as 12 mm. Moreover, the MBEC in experiment [2] was determined as 2708 µM; in experiment [3], 43331 µM; in experiment [4], 43331 µM; in [5], 10833 µM; in experiment [6], 2708 µM; in experiment [7], 21666 µM. The MBEC in experiment [8] is 21666 µM; in experiment [9], 43331 µM; in experiment [10], above 43331 µM; in experiment [22] (MRSA 24 h biofilm, 24 h challenge), 21666 µM. Besides, the “percent weight to volume of ionic liquid that corresponds to the MBEC value” in [5] (S. epidermidis ATCC 35984 biofilm) was “(0.25) % w/v”; in experiment [22] (MRSA biofilm), “(0.5) % w/v”. Further, the minimal bactericidal concentration (MBC) in experiment [11] (E-MRSA 15, 99.9% killing) is listed as above 1444 µM; in [12] (E. coli NCTC 8196, 99.9% killing), 1444 µM; in [13] (B. cenocepacia J2315, 99.9% killing) it was above 1444 µM; in [14] (S. epidermidis ATCC 12228, 99.9% killing) it was 1444 µM; in experiment [15] (P. mirabilis NCTC 12442, 99.9% killing), above 1444 µM; in experiment [16] (S. epidermidis ATCC 35984, 99.9% killing) it was 1444 µM. In addition, the MBC in experiment [17] (S. aureus ATCC 29213, 99.9% killing) is above 1444 µM; in [18] (P. aeruginosa PA01, 99.9% killing), above 1444 µM; in experiment [19] (K. aerogenes NCTC 7427, 99.9% killing), above 1444 µM; in [20] (C. tropicalis NCTC 7393, 99.9% killing), above 1444 µM; in experiment [23] (99.9% killing), above 1444 µM. Further, the MIC in experiment [11] (E-MRSA 15, 24 h at 37° C.) was 722 µM; in [12] it was 722 µM; in experiment [13] (B. cenocepacia J2315, 24 h at 37° C.), above 1444 µM; in [14] it was 361 µM; in [15], 1444 µM; in experiment [16], 722 µM. Besides, the MIC in experiment [17] was determined as 722 µM; in experiment [19], 1444 µM; in experiment [20] (C. tropicalis NCTC 7393, 24 h at 37° C.) it was 1444 µM; in [21], 722 µM; in experiment [23], 1444 µM.

On to `CCCCCCCCCCCCCC[n+]1cccc2cc(C)ccc21.[Br-]` [IL3, N-tetradecyl-6-methylquinolinium bromide], for which the MBEC in experiment [24] is 8.2 µM. In addition, the MIC in experiment [12] (Escherichia coli, NCTC8196) worked out at 11.6 µM; in experiment [25] it was 2.9 µM; in experiment [14] (setting [27]) it was 8.2 µM; in experiment [15] (Proteus mirabilis, NCTC12442) it was 92.9 µM; in experiment [18], 23.2 µM; in [23] (Staphylococcus aureus), 23.2 µM.

`CCCCCCCCCCCCCC[n+]1ccc2ccccc2c1.[Br-]` [IL4, N-tetradecylisoquinolinium bromide]: the MBEC in experiment [26] turned out to be 7.9 µM; in experiment [24], 31.7 µM; in experiment [5], 31.5 µM; in experiment [6], 126.9 µM; in experiment [9], 63.4 µM. Also, the MIC in experiment [12] (Escherichia coli, NCTC8196) amounted to 24.1 µM; in experiment [25], 3 µM; in experiment [14] (setting [27]), 7.9 µM; in experiment [15] (Proteus mirabilis, NCTC12442) it was 193 µM; in [16] (Staphylococcus epidermidis, ATCC35984, 24 h) it was 7.9 µM; in [17] (Staphylococcus aureus, ATCC29213) it was 7.9 µM. Further, the minimal inhibitory concentration (MIC) in experiment [18] was found to be 48.2 µM; in [19] (Klebsiella aerogenes, NCTC7427), 7.9 µM; in experiment [23] (Staphylococcus aureus) it was 24.1 µM.
